{
  "source": "patent US20240358862A1",
  "about": "“Synthesis Method and Application of a Near-infrared Probe GGa-ICG specific binding to PSCA” (Guangzhou Shiyun Biotechnology Co., Ltd, priority 2022, published 2024)",
  "key": {"[1]": {"tested_on": "prostate cancer cell lines", "experiment": "Cell binding by fluorescence microscope / flow cytometry", "type": "cell-based, human", "conditions": "200 nM probe", "experimental": "(§1) Therefore, 200 nM of GGa-ICG and ssDNA-ICG were used to confirm their specific binding. The method is as follows: • a. The human prostate cancer cell lines PC-3, DU145, LNCaP, 22RV1, immortalized normal human prostate epithelial cell line RWPE1, and human cervical cancer cell line Hela, as well as MCF7 cells obtained from the American Type Culture Collection (ATCC), were used in this study. All cell lines were cultured at 37° C. and 5% CO2 in a humidified environment. […]\n(§2) After the cells reach a confluency of over 80%, they were passaged and grown for 24-48 hours until they reached a confluency of over 50%. They were then washed once with PBS (without Ca and Mg ions), twice with cold washing buffer, and incubated at room temperature (4° C. for the internalization inhibition group) for 30 minutes with the sample buffer containing near-infrared fluorescence probes GGa-ICG, ssDNA-ICG, and ICG to a final concentration of 200 nM (or as specified). The cells were observed under a fluorescence microscope or analyzed by flow cytometry after digestion with trypsin without EDTA. […]"}, "RWPE-1, MCF2, Hela cells": {"tested_on": "RWPE-1, MCF2, Hela cells", "experiment": "Cell binding by fluorescence microscope / flow cytometry, non-tumour prostate and other cells", "type": "cell-based, human", "conditions": "200 nM probe", "experimental": "as §1, §2"}, "PC-3 cells": {"tested_on": "PC-3 cells", "experiment": "Affinity detection by flow cytometry", "type": "binding, human", "conditions": "PC3 cells, 0-500 nM, 37° C., read-out: dissociation constant", "experimental": "To test the affinity of different GGa-ICG aptamers for PC-3 cells, aptamers at different concentrations (0, 10, 20, 50, 100, 200, 500 nM) are incubated with 2×10^5 cells at 37° C. After digestion into a cell suspension, flow cytometry was used for analysis. The average fluorescence intensity of the background was subtracted from that of each sample. The equilibrium dissociation constant (Kd) for aptamer-cell interactions is calculated using SigmaPlot software."}, "cells": {"tested_on": "cells", "experiment": "MTT experiment (in vitro cell toxicity)", "type": "cell-based", "conditions": "2-20 times the Kd value concentration", "experimental": "MTT assay was used to measure the in vitro cell toxicity in a 96-well plate. In brief, cells (6×10^3 cells per well) were treated with GGa-ICG (at concentrations of 0, 20, 200 nM, 10 μM, etc.), free drugs, or hybrids in the culture medium (RPMI1640 without FBS, unless otherwise specified; 37° C.; 5% CO2). […]"}, "PSCA on PC-3 cells": {"biological_target": "T1, PSCA on PC-3 cells (Homo sapiens, UniProt O43653)", "T1 construct": "Membrane proteins of PC-3 cells were extracted; endogenous in cells; host or cells: PC-3", "T1 sequence (O43653 12-83)": "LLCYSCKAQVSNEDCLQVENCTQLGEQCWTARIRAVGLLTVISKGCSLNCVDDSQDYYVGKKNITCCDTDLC", "experiment": "Antibody competition experiment by flow cytometry", "type": "cell-based", "conditions": "200 nM GGa-ICG, 10 μg/mL anti-PSCA-FITC", "experimental": "A suspension of 5×10^5 cells of PC-3 or other cell lines was incubated with 200 nM of GGa-ICG or anti-PSCA-FITC antibody in 100 μL of binding buffer on ice for 30 minutes, washed again, and subjected to flow cytometry analysis (FACS Calibur instrument, BD Biosciences): 10,000 events were collected for each sample. ICG-labeled ssDNA-ICG was used as a negative control. For the antibody competition experiment, 5×10^5 cells were incubated with 200 nM of GGa-ICG in binding buffer on ice for 30 minutes, followed by the addition of 10 μg/mL of anti-PSCA-FITC antibody and further incubation for 30 minutes as the GGa-ICG blocking group. 10 μg/mL of anti-PSCA-FITC was incubated in binding buffer on ice for […], followed by the addition of 200 nM of GGa-ICG and further incubation for 30 minutes as the anti-PSCA-FITC blocking group. Both 200 nM of GGa-ICG and 10 μg/mL of anti-PSCA-FITC antibody were incubated on ice for 30 minutes as the combined group. After washing, the cells were resuspended and subjected to flow cytometry analysis.\nTo confirm the results of the mass spectrometry, the location of GGa-ICG and PSCA on PC-3 cells was first examined. To achieve this, PC-3 cells were incubated with […]."}, "[2]": {"experiment": "Toxicity test of GGa-ICG (serum enzymatic testing)", "type": "in vivo", "conditions": "serum of nude mice 72 hours after injection", "experimental": "Blood serum was collected from nude mice injected with GGa-ICG for 72 hours and subjected to enzymatic testing."}, "[3]": {"tested_on": "tumor cell lines with elevated PSCA expression", "experiment": "Flow cytometry binding to other tumor cell lines", "type": "cell-based", "from_the_text": "(§3) PSCA is expressed at high levels in various tumors such as prostate cancer, bladder cancer, kidney cancer, breast cancer, colon cancer, lung cancer, pancreatic cancer, etc. Using the aforementioned method, T24 bladder cancer cells, Cakil renal cancer cells, MDA-MB468 breast cancer cells, HT29 colon cancer cells, PANC1 pancreatic cancer cells, NCI-H460 lung cancer cells, and other cell lines were stained with GGa-ICG for flow cytometry analysis. Positive cell lines were used to establish subcutaneous transplantation tumor models to detect the visualization of GGa-ICG in vivo."}, "[4]": {"tested_on": "subcutaneous transplantation tumor models", "experiment": "In vivo visualization in subcutaneous transplantation tumor models of other cancers", "from_the_text": "as §3"}, "PSCA": {"biological_target": "T2, PSCA (Homo sapiens, UniProt O43653)", "T2 sequence (O43653 12-83)": "T1 sequence (O43653 12-83)", "experiment": "Binding site of GGa-ICG on PSCA protein", "conditions": "sequence ALQPGTALLCYSCKA"}},
  "note": "pKd: −log10 of the molar value.",
  "data": [
    {"substance": "GGa-ICG: near-infrared probe: PSCA-binding nucleic acid aptamer GGa linked at 3′ to an ICG derivative dye (DNA TGCCACTACAGCTGGTTCGGTTTGGTGACTTCGTTCTTCGTTGTGGT; 3'-ICG dye, further chemistry not given here)", "values": [
      {"measurement": "binding affinity of PC3, VCap and LNCap cell lines relative to DU-145, 22RV1 cells", "setting": "[1]", "value": "stronger"},
      {"measurement": "specific binding to prostate cancer cell lines", "setting": "[1]", "value": "could specifically bind"},
      {"measurement": "binding affinity to RWPE-1, MCF2, Hela cells", "setting": "RWPE-1, MCF2, Hela cells", "value": "significantly reduced binding affinity"},
      {"measurement": "pKd", "setting": "PC-3 cells", "value": 7.26},
      {"measurement": "cell inhibition in MTT experiment", "setting": "cells", "value": "no significant cell inhibition"},
      {"measurement": "relationship with PSCA antibody in flow cytometry", "setting": "PSCA on PC-3 cells", "value": "competitive relationship"},
      {"measurement": "in vivo toxicity (serological test)", "setting": "[2]", "value": "did not show in vivo toxicity"},
      {"measurement": "binding to tumor cell lines with elevated PSCA expression", "setting": "[3]", "value": "could bind"},
      {"measurement": "in vivo binding in multiple cancer types", "setting": "[4]", "value": "consistent with PSCA expression"},
      {"measurement": "binding site on PSCA protein (amino acids)", "setting": "PSCA", "value": "14-28"}
    ]}
  ]
}
